pIC50: −log10 of the molar value. Like-named read-outs stand apart in the source and are kept apart here.
Tests used:
Assay type in all cases: biochemical
recombinant human TOP2A [1] = target: T1, recombinant human TOP2A (Homo sapiens, UniProt P11388); assay: In vitro ATPase activity of TOP2A (coupled assay)
T1 construct: Using recombinant full-length human TOP2A and TOP2B enzymes; YFP (N, cleaved yes); made in house; host or cells: HEK293F
Outline: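 Recombinant human TOP2A or TOP2B, prediluted to 500 nM in HEPES pH 7.5/500 mM NaCl storage buffer, in an NADH-coupled ATP hydrolysis assay, ATP-initiated at 30 °C. NADH fluorescence decay (ex 340, em 480) read every 30 s for 120 cycles. Slopes background-corrected, normalized to untreated controls, and fitted for IC50.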

recombinant human TOP2A [2] = target: T1, recombinant human TOP2A; assay: DNA decatenation assay, recombinant TOP2A
Protocol: (§1) The human topoisomerase II decatenation assay was performed to determine the inhibitory effects of BNS-22 and new compounds as previously described with minor modifications[14],[36]. The assay was performed using recombinant human TOP2A or TOP2B generated using the HEK293F YFP-tag expression system as previously described[18],[19],[36]. Briefly, plasmids encoding YFP-TOP2A or YFP-TOP2B were transfected into HEK293F cells (Catalog number 11625019, Thermofisher Scientific), and TOP2 proteins were isolated from cell lysates by anti-YFP nanobody affinity chromatography. After elution by TEV protease cleavage, TOP2 proteins were FPLC purified by sequential cation exchange and size exclusion chromatography. Plasmid encoding TOP2B C88Y was generated by round-the-horn PCR mutagenesis and the sequence was verified by full-plasmid sequencing. Purified TOP2 proteins were stored in a storage buffer containing 20 mM HEPES pH 7.5, 500 mM NaCl, 0.5 mM TCEP, 25% (v/v) glycerol at -80 °C. For decatenation assays, purified TOP2 proteins were incubated with 200 ng kDNA (Topogen) in a reaction buffer containing 50 mM Tris−HCl (pH 8), 100 mM NaCl, 10 mM MgCl2, 0.5 mM DTT, 2 mM ATP, 0.1 mM tris(2-carboxyethyl)phosphine (TCEP), 5% (v/v) glycerol, 70 μg/mL bovine serum albumin, and 1/10 volume of each compound diluted in 10% DMSO (final DMSO concentration 1%) for 40 min at 37 °C. The reaction was then stopped by the addition of gel loading buffer (0.5 volumes of 60% (w/v) glycerol, 60 mM EDTA, 20 mM Tris−HCl (pH 7.5), 0.5 mg/mL bromophenol blue) and the samples were placed on ice. Reaction products were resolved by agarose gel electrophoresis in TBE buffer containing GelRed stain (Biotium). Gels were visualized using an iBright CL1000 (Thermofisher Scientific). Band intensities were quantified using FIJI, and the signal of the treated samples was normalized to the value of the control (untreated sample; 100%) present on the same gel. The normalized signal of three independent measurements was then expressed as mean ± SD. Each presented data point was obtained from distinct sample. Normalized values were plotted as a function of inhibitor concentration to determine IC50 values by nonlinear regression with variable slope using Prism 9 (GraphPad).

recombinant human TOP2B = target: T2, recombinant human TOP2B (Homo sapiens, UniProt Q02880); assay: DNA decatenation assay, recombinant TOP2B
T2 construct: Using recombinant full-length human TOP2A and TOP2B enzymes; YFP (N, cleaved yes); made in house; host or cells: HEK293F
Protocol: as §1

[3] = independent replicates, normalized to 0 drug, read-out: Normalized % TOP2A activity
[4] = independent replicates, read-out: Normalized % TOP2A activity, ATPase
[5] = enzyme expressed in HEK293F, n=3

T1 sequence (P11388 whole entry): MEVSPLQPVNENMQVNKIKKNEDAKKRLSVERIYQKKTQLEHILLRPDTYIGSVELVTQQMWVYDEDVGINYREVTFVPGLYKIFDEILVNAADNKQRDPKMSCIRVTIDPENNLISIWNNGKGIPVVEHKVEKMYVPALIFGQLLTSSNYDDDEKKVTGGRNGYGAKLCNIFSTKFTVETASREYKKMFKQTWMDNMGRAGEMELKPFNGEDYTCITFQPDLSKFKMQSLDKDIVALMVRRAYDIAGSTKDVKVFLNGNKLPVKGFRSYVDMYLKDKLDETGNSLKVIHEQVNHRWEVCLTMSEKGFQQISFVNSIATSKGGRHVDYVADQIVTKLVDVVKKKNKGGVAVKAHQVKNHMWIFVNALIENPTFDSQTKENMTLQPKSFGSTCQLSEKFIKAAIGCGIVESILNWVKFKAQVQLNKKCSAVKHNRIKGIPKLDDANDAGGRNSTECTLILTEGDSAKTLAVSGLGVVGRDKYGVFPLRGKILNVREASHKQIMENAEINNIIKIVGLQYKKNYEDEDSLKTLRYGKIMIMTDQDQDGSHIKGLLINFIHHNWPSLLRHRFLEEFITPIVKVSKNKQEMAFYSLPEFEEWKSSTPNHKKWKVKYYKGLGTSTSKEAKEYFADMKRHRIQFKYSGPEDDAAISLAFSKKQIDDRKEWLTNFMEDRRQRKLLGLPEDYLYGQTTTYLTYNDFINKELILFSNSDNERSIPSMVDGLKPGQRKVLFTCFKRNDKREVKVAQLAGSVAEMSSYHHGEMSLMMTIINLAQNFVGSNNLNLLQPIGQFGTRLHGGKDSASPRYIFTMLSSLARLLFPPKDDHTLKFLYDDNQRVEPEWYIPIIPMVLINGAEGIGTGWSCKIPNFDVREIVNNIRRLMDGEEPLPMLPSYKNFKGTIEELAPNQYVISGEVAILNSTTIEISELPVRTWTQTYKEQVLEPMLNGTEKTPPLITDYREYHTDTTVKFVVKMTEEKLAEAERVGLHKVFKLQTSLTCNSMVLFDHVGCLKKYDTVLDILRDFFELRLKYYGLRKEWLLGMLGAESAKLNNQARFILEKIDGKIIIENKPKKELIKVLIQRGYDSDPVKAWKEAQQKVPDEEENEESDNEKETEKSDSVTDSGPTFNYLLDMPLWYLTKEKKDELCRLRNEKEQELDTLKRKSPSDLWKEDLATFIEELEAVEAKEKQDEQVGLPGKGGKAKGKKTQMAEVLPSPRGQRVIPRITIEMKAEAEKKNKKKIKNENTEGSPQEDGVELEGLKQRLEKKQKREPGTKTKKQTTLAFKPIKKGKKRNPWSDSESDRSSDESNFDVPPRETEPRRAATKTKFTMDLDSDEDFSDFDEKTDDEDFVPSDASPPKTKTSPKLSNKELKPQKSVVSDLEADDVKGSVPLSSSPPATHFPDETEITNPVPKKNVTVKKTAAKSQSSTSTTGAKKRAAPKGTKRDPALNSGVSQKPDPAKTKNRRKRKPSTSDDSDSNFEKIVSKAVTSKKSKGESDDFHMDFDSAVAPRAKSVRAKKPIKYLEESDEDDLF
T2 sequence (Q02880 1-1621 isoform Q02880-2): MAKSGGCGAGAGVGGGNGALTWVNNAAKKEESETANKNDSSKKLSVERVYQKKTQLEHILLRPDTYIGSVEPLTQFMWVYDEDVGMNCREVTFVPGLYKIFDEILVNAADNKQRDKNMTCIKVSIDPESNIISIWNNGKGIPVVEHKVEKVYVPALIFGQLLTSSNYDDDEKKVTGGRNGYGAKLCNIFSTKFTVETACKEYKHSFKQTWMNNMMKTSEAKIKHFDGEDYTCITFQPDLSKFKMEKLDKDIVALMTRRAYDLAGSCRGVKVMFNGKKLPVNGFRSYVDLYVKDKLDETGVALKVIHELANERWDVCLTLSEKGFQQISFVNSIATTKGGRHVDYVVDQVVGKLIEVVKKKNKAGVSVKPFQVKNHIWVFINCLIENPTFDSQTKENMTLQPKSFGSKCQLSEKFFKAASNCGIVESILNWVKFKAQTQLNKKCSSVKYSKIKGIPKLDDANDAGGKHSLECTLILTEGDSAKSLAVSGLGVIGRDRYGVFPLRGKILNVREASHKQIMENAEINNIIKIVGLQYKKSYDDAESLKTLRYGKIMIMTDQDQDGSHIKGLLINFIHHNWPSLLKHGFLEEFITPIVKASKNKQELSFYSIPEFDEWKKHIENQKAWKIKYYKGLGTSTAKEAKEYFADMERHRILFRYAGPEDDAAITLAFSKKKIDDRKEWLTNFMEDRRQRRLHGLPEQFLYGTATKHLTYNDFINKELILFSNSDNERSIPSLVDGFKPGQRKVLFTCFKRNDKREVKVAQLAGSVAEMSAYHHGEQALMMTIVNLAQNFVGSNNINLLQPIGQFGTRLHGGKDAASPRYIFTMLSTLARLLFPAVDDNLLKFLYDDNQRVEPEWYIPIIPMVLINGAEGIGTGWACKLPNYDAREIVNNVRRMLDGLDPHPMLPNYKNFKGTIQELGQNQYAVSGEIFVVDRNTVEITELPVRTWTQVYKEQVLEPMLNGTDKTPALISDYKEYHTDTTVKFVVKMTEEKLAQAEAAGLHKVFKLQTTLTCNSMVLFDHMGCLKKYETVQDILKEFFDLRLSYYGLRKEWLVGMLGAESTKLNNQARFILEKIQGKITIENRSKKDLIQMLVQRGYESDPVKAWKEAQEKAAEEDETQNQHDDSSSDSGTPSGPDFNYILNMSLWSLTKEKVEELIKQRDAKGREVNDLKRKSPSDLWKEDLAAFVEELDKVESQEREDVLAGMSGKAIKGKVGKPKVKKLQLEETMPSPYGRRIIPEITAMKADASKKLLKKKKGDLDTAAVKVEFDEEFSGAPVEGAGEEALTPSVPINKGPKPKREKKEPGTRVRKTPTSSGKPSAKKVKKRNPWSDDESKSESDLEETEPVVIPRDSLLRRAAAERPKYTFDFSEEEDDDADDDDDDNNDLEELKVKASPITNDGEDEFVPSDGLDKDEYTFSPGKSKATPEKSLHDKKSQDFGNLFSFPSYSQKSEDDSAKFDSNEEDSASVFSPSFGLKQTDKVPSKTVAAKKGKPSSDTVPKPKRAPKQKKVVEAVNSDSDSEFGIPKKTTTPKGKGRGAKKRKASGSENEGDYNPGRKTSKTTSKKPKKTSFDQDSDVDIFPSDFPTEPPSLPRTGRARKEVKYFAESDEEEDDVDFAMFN

CCCc1cc(=O)oc2c(C(=O)N3CCCc4ccccc43)c(OCCN3CCN(C)CC3)ccc12 [topobexin (9)]
remaining activity at 0.03125 µM (recombinant human TOP2A [1]; 0.03125 μM, independent replicates, read-out: Normalized % TOP2A activity, ATPase): 89.4% | remaining activity at 0.0625 µM (recombinant human TOP2A [1]; [3]): 89.1% | remaining activity at 0.0625 µM (recombinant human TOP2A [1]; [4]): 92.8% | remaining activity at 0.125 µM (recombinant human TOP2A [1]; 0.125 μM, independent replicates, normalized to 0 drug, read-out: Normalized % TOP2A activity): 88.8% | remaining activity at 0.25 µM (recombinant human TOP2A [1]; [3]): 87.4% | remaining activity at 0.25 µM (recombinant human TOP2A [1]; [4]): 79.6% | remaining activity at 0.5 µM (recombinant human TOP2A [1]; 0.5 μM, independent replicates, normalized to 0 drug, read-out: Normalized % TOP2A activity): 81.9% | remaining activity at 1 µM (recombinant human TOP2A [1]; 1 μM, independent replicates, normalized to 0 drug, read-out: Normalized % TOP2A activity): 73.3% | remaining activity at 2 µM (recombinant human TOP2A [1]; 2 μM, independent replicates, normalized to 0 drug, read-out: Normalized % TOP2A activity): 53.8% | remaining activity at 4 µM (recombinant human TOP2A [1]; 4 μM, independent replicates, normalized to 0 drug, read-out: Normalized % TOP2A activity): 26.2% | remaining activity at 8 µM (recombinant human TOP2A [1]; [3]): 5.71% | remaining activity at 8 µM (recombinant human TOP2A [1]; [4]): 28.6% | remaining activity at 16 µM (recombinant human TOP2A [1]; 16 μM, independent replicates, read-out: Normalized % TOP2A activity, ATPase): 14.4% | pIC50 (recombinant human TOP2A [1]; n=3): 5.39 | remaining activity at 0.02 µM (recombinant human TOP2A [2]; 0.02 μM, independent replicates, read-out: Normalized % TOP2A activity, decatenation): 87.1% | remaining activity at 0.313 µM (recombinant human TOP2A [2]; 0.313 μM, independent replicates, read-out: Normalized % TOP2A activity, decatenation): 96.1% | remaining activity at 0.625 µM (recombinant human TOP2A [2]; 0.625 μM, independent replicates, read-out: Normalized % TOP2A activity, decatenation): 91.5% | pIC50 (recombinant human TOP2A [2]; [5]): 5.32 | remaining activity at 0.039 µM (recombinant human TOP2B; 0.039 μM, independent replicates, read-out: Normalized % TOP2B activity, decatenation): 92.3% | remaining activity at 0.313 µM (recombinant human TOP2B; 0.313 μM, independent replicates, read-out: Normalized % TOP2B activity, decatenation): 29.3% | remaining activity at 0.625 µM (recombinant human TOP2B; 0.625 μM, independent replicates, read-out: Normalized % TOP2B activity, decatenation): 15.5% | remaining activity at 1.25 µM (recombinant human TOP2B; 1.250 μM, independent replicates, read-out: Normalized % TOP2B activity, decatenation): 10.9% | remaining activity at 2.5 µM (recombinant human TOP2B; 2.500 μM, independent replicates, read-out: Normalized % TOP2B activity, decatenation): 11.1% | remaining activity at 5 µM (recombinant human TOP2B; 5.000 μM, independent replicates, read-out: Normalized % TOP2B activity, decatenation): 9.87% | remaining activity at 20 µM (recombinant human TOP2B; 20.000 μM, independent replicates, read-out: Normalized % TOP2B activity, decatenation): 5.03% | SRbeta (SRTOP2B), decatenation activity (recombinant human TOP2B; TOP2A IC50 divided by TOP2B IC50): 25 | pIC50 (recombinant human TOP2B; [5]): 6.72
